Values quoted from earlier work, collected in patent US20050095265A1, “Process for making larvicidal evaporation suppressant powder” (priority 2002, published 2005).

effect on larvae of feeding on particles floating on the water surface (Culex quinquefasciatus; particles on water surface of test units, apparently fed upon by mosquito larvae) | Structure (SMILES) | influence on aquatic larvae (Anopheles gambiae) | larvicidal effect (Culex quinquefasciatus; film-forming compound on water surface, Culex quinquefasciatus larvae) | mosquito larvae mortality (Culex quinquefasciatus; as reported by Lorenzen and Meinke)
no ill effect | CCCCCCCCCCCCCCCCO [cetyl alcohol, n-hexadecanol] | no appreciable influence | no larvicidal effect | –
– | CCCCCCCCCCCCO [lauryl alcohol, dodecanol] | – | – | cause mosquito larvae mortality
